Measurements as given in patent publication US8097422B2, “Kir channel modulators” (Salk Institute for Biological Studies, priority 2007, dated 2012).
Where a chain is given by its changes, count along the chain named.

Experiments:
[1] = biological target: T1, GIRK4* Leu252 to Tyr mutant channel (Rattus norvegicus, UniProt P48548, L252Y/S143T); experiment: whole-cell patch clamp, GIRK4* L252Y mutant channel; type: cell-based; details: for activation of GIRK4* Leu252 to Tyr mutant, percentage change from basal: n=8
T1 construct: expressed in transfected cells; host or cells: HEK293 / HEK293T
T1 sequence (P48548 1-419 S143T/L252Y): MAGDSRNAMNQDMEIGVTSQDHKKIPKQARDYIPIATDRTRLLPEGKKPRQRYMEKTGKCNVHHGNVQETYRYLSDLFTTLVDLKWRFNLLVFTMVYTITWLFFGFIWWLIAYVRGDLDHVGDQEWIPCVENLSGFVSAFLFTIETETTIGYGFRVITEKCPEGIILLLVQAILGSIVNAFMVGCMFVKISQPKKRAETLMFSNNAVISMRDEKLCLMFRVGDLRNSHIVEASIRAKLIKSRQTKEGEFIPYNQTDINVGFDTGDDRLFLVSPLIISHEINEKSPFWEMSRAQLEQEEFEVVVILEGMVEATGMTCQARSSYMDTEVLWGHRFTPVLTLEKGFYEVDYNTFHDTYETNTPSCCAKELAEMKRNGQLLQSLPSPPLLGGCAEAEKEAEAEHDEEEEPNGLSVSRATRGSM
Experimental: (§1) Point mutations were introduced by Quickchange site directed mutagenesis kit (Stratagene). The GIRK2 PIP mutant was generated by overlap-PCR method. […] Mutations were confirmed by automated DNA sequencing methods. […] Cells were plated in a 12 well dish, and were transiently transfected using Lipofectamine 2000 (Invitrogen). After 12-24 hrs, cells were re-plated to 12-mm glass coverslips coated with poly-D-[…] microgram/ml). […] The cells were co-transfected with 0.04 micrograms of eYFP cDNA to identify transfected cells. 0.8 micrograms of Muscarinic Receptor 2 (M2R) was also co-transfected for experiments with Carbachol. […] Whole-cell patch clamp recordings were performed 24-72 hrs after transfection. […] Alcohols, 5 μM Carbachol, and 1 mM BaCl2 (diluted in 20K solution) were applied from outside the cell with the rapid perfusion system (Warner Instruments). […] Current-voltage relationships also were obtained from the ramp protocol. This protocol was used to measure the inwardly rectifying currents at -100 mV and to ensure stability of recording by monitoring a reversal potential and inward rectification. […] Alcohol and Carbachol modulated currents were measured by averaging two consecutive current readings upon reaching steady state, and subtracting the averaged basal current before and after the application of modulator.

[2] = biological target: T2, GIRK4* Leu252 to Ala mutant channel (Rattus norvegicus, UniProt P48548, L252A/S143T); experiment: whole-cell patch clamp, GIRK4* L252A mutant channel; type: cell-based; details: for percent activation of GIRK4* Leu252 to Ala mutant: n=8
T2 construct: expressed in transfected cells; host or cells: HEK293 / HEK293T
T2 sequence (P48548 1-419 S143T/L252A): T1 sequence (P48548 1-419 S143T/L252Y) with Y252A
Experimental: as §1

Row | Compound | activation of GIRK4* Leu252 to Tyr mutant, percentage change from basal [1] [%] | percent activation of GIRK4* Leu252 to Ala mutant [2] [%] | Carb (G-protein mediated) activation, GIRK4* L252 Ala ([2]; 5 μM Carbachol) [%] | Carb (G-protein mediated) activation, GIRK4* L252 Tyr ([1]; 5 μM Carbachol) [%]
1 | CCO [EtOH, ethanol] | 20±3 |  |  | 
2 | CC(O)CC(C)(C)O (racemic) [MPD, 2-methyl-2,4-pentanediol] |  | 179±22 |  | 
3 | C[N+](C)(C)CCOC(N)=O [Carbachol] |  |  | 51±8 | 110±14
4 | 1-propanol [1-PrOH] | 15±3 | 86±8 |  | 
